Laboratory results: patent US8791267B2, “Biaryl PDE4 inhibitors for treating inflammatory, cardiovascular and CNS disorders” (Decode Genetics EHF, priority 2007, dated 2014)

Experiments:
PDE4 = PDE4 (Homo sapiens, UniProt Q08499); experiment: In-vitro assay for PDE4 enzymes, real-time enzyme-coupled spectrophotometric assay (Table 9); assay type: biochemical; settings: human PDE4D; activity class, Table 9; read-out: hPDE4D
PDE4B = PDE4B (Homo sapiens, UniProt Q07343); experiment: In-vitro assay for PDE4 enzymes, real-time enzyme-coupled spectrophotometric assay, PDE4B Activity (Table 10); assay type: biochemical; settings: human PDE4B (hPDE4B), enzyme-coupled spectrophotometric assay; read-out: PDE4B Activity, hPDE4B
Sequence of PDE4B (Q07343 whole entry): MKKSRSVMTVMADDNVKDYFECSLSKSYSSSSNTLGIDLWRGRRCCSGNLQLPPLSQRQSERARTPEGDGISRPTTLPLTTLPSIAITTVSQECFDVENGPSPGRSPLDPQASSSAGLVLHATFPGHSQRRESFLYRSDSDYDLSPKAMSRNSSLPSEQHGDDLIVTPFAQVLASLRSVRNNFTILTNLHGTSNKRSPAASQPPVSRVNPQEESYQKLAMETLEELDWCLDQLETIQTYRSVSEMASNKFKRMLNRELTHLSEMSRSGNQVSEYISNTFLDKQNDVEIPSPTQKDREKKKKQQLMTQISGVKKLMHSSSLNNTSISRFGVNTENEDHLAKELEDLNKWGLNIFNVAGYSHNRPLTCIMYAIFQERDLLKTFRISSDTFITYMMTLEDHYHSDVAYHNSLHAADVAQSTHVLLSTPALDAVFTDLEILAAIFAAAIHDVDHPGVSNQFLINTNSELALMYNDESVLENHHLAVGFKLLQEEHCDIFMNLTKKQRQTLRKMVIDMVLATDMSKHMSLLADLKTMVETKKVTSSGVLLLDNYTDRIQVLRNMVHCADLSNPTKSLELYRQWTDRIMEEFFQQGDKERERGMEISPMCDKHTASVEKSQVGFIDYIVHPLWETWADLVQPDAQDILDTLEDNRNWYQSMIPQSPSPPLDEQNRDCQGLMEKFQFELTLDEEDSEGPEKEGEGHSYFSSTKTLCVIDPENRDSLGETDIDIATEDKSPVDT

Sequence of PDE4 (Q08499 whole entry): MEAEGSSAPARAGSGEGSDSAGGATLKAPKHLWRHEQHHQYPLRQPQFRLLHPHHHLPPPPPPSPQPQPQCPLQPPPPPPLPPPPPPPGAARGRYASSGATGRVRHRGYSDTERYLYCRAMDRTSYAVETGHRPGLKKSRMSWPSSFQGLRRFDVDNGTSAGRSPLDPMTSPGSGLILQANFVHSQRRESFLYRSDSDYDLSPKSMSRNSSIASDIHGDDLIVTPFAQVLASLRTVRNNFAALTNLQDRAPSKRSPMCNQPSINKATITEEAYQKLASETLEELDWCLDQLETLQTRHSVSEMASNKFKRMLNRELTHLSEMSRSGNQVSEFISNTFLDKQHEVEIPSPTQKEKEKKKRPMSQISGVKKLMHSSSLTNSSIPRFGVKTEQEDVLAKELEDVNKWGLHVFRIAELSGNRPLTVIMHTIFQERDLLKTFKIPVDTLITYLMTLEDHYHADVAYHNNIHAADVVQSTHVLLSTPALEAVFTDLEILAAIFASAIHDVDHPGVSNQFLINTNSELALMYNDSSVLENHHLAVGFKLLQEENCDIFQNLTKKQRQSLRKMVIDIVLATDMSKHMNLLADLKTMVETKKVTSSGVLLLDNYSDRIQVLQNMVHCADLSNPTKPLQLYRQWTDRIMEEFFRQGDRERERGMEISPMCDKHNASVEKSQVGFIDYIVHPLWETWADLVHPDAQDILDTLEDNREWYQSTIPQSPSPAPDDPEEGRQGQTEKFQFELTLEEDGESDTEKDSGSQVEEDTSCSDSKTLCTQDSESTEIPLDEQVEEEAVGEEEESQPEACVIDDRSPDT

Compound | IC50 (PDE4) | IC50 (PDE4B)
COc1ccc(Cn2cncn2)cc1-c1ccc2nonc2c1 [P-481, 5-(2-Methoxy-5-[1,2,4]triazol-1-ylmethyl-phenyl)-benzo[1,2,5]oxadiazole] | < 5 µM | 5 to 20 µM
O=c1ccc(Cc2ccc(O)c(-c3cccc([N+](=O)[O-])c3)c2)n[nH]1 [P-488, 6-(6-Hydroxy-3′-nitro-biphenyl-3-ylmethyl)-2H-pyridazin-3-one] | < 5 µM | 5 to 20 µM
O=[N+]([O-])c1cccc(-c2cc(Cc3ccc(F)cc3)ccc2O)c1 [P-494, 5-(4-Fluoro-benzyl)-3′-nitro-biphenyl-2-ol] | < 5 µM | < 5 µM
Oc1ccc(Cc2ccc(F)cc2)c(F)c1-c1cccc(Br)c1 [P-496] | < 5 µM | < 5 µM
O=C1CCCN1Cc1ccc(O)c(-c2cccc([N+](=O)[O-])c2)c1 [P-503, 1-(6-Hydroxy-3′-nitro-biphenyl-3-ylmethyl)-pyrrolidin-2-one] | 5 to 20 µM | 5 to 20 µM
O=C1CCCN1Cc1ccc(O)c(-c2cccc([N+](=O)[O-])c2)c1O [P-504, 1-(2,6-Dihydroxy-3′-nitro-biphenyl-3-ylmethyl)-pyrrolidin-2-one] | < 5 µM | 5 to 20 µM
[2H]C([2H])([2H])Oc1ccc(Cc2ccc(NC(N)=O)cc2)cc1-c1cccc(Cl)c1 [P-516] | < 5 µM | < 5 µM
CCNC(=O)N1CCN(c2cc(Cc3ccc(OC)c(-c4cccc(Cl)c4)c3F)ccn2)CC1 [P-519, 4-[4-(3′-Chloro-2-fluoro-6-methoxy-biphenyl-3-ylmethyl)-pyridin-2-yl]-piperazine-1-carboxylic acid ethylamide] | < 5 µM | < 5 µM
COc1ccc(-n2cnc3ccc(N)cc32)cc1-c1cccc(Cl)c1 [P-524, 3-(3′-Chloro-6-methoxy-biphenyl-3-yl)-3H-benzoimidazol-5-ylamine] | < 5 µM | < 5 µM

The remaining lines, values ahead:

IC50 (PDE4) | IC50 (PDE4B) | Compound
< 5 µM | 5 to 20 µM | COc1ccc(Cn2cnc(-c3cccnc3)c2)c(F)c1-c1cccc(Cl)c1 [P-479, 3-[1-(3′-Chloro-2-fluoro-6-methoxy-biphenyl-3-ylmethyl)-1H-imidazol-4-yl]-pyridine]
< 5 µM | 5 to 20 µM | O=[N+]([O-])c1cccc(-c2cc(Cc3ccc(Cl)nc3)ccc2O)c1 [P-500]
< 5 µM | 5 to 20 µM | NC(=O)Nc1ccc(Cc2ccc(O)c(-c3cccc([N+](=O)[O-])c3)c2F)cc1 [P-508]
5 to 20 µM | 21 to 40 µM | CCNC(=O)Nc1ccc(Cc2ccc(OC)c(-c3cccc(-c4nnn[nH]4)c3)c2F)cn1 [P-513, 1-Ethyl-3-{5-[2-fluoro-6-methoxy-3′-(1H-tetrazol-5-yl)-biphenyl-3-ylmethyl]-pyridin-2-yl}-urea]
< 5 µM | < 5 µM | COc1ccc(Cc2ccnc(N3CCNCC3)c2)c(F)c1-c1cccc(Cl)c1 [P-515, 1-[4-(3′-Chloro-2-fluoro-6-methoxy-biphenyl-3-ylmethyl)-pyridin-2-yl]-piperazine]
< 5 µM | < 5 µM | COc1ccc(Cc2ccnc(N3CCN(C(N)=O)CC3)c2)c(F)c1-c1cccc(Cl)c1 [P-518, 4-[4-(3′-Chloro-2-fluoro-6-methoxy-biphenyl-3-ylmethyl)-pyridin-2-yl]-piperazine-1-carboxylic acid amide]
< 5 µM | < 5 µM | COc1ccc(Cc2ccc(CNC(=O)C(N)=O)nc2)c(F)c1-c1cccc(Cl)c1 [P-521, N-[5-(3′-Chloro-2-fluoro-6-methoxy-biphenyl-3-ylmethyl)-pyridin-2-ylmethyl]-oxalamide]
< 5 µM | < 5 µM | COc1ccc(Cc2ccc(OC[C@H]3CCCN3)nc2)c(F)c1-c1cccc(Cl)c1 [P-523, 5-(3′-Chloro-2-fluoro-6-methoxy-biphenyl-3-ylmethyl)-2-((R)-1-pyrrolidin-2-ylmethoxy)-pyridine]
< 5 µM | 5 to 20 µM | COc1ccc(Cn2cc(-c3ccccn3)cn2)c(F)c1-c1cccc(Cl)c1 [P-527, 2-[1-(3′-Chloro-2-fluoro-6-methoxy-biphenyl-3-ylmethyl)-1H-pyrazol-4-yl]-pyridine]
